Experimental data published in patent publication US20250339569A1, “CARBONIC ANHYDRASE IX LIGANDS” (priority 2021, published 2025).
Where two headings read alike, the source gives them in different places. Starred links: 1 amine or outer side, 2 acyl side, 3 side chain; linkers in the order of their positions; H or OH if unused. Positions of bridges follow the written chain, without caps; N, C: chain ends. Non-standard residues stand in square brackets, D forms with d. Residues, ends and D or L forms follow the SMILES beside them. *: point of attachment. Phe(3-NHCO(CH2)3SO2NH2) = N[C@@H](Cc1cccc(NC(=O)CCCS(N)(=O)=O)c1)C(=O)O; X38 = O=C(Cc1cc(=O)[nH][nH]c1=O)Nc1cccc(C[C@H](N[*:1])C(=O)[*:2])c1; DOTA = O=C(O)CN1CCN(CC(=O)O)CCN(CC(=O)*)CCN(CC(=O)O)CC1; Phe(4-NH2) = Nc1ccc(C[C@H](N)C(=O)O)cc1; mXylylene = c1cc(C[*:1])cc(C[*:2])c1; X2 = O=C(CN1CCC(N[*:1])CC1)[*:2]; X1 = O=C(CN1CCN([*:1])CC1)[*:2]; X17 = NS(=O)(=O)c1cc(C(=O)*)cs1; Dap = NC[C@H](N)C(=O)O

Columns and labels:
[1] = biological target: T1, CAIX-expressing human HT-29 colorectal cancer cells (Homo sapiens, UniProt Q16790); experiment: FACS binding assay (IC50 determination, competition with tracer 3BP-2776 or 3BP-4149); conditions: FACS binding assay, HT-29 cells, 4° C., 1 hour, read-out: pIC50 category (activity) (converted)
T1 construct: CAIX-expressing human HT-29 colorectal cancer cells; host or cells: HT-29 human colorectal cancer cells
Method in brief: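 HT-29 cells in FACS buffer (PBS, 1% FCS) at 500.000 cells/ml were exposed to compounds competing with a labelled tracer, with biotinylated compounds detected by 1 μg/mL APC-streptavidin for 30 min on ice. APC/Cy5 median fluorescence was read by flow cytometry and IC50 derived by 4PL fit.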

[2] = biological target: T2, human carbonic anhydrase IX (hCAIX-Fc) (Homo sapiens, UniProt Q16790); experiment: Surface plasmon resonance assay with hCAIX-Fc; type: binding; conditions: 25° C.; for t1/2 category (activity): SPR dissociation half-life, hCAIX-Fc; for Kd: SPR, hCAIX-Fc captured, read-out: pKD category (activity) (converted)
T2 construct: purchased SinoBliological (Sino Biological) 10107-H02H

[3] = competition with tracer 3BP-2776 (10 nM, biotin-labeled)
[4] = competition with tracer 3BP-4149 (3 nM, Cy5-labeled)

IC50 [1, 3] [nM] | t1/2 category (activity) [2] | Kd [2] [nM] | IC50 [1, 4] [nM] | SMILES
< 10 | A (t1/2>15.0 minutes) | < 10 | – | CC(C)C[C@@H]1NC(=O)[C@H](Cc2cccc(NC(=O)Cn3cc(S(N)(=O)=O)cn3)c2)NC(=O)[C@H](CC(=O)O)NC(=O)[C@H]2CCCN2C(=O)[C@H](CCC(=O)O)NC(=O)[C@@H](NC(=O)[C@H](CCC(N)=O)NC(=O)CN2CCN(C(=O)CN3CCN(CC(=O)O)CCN(CC(=O)O)CCN(CC(=O)O)CC3)CC2)CSCc2cccc(c2)CSC[C@@H](C(N)=O)NC(=O)[C@H](CO)NC(=O)[C@H](Cc2c[nH]c3ccccc23)NC(=O)[C@H]([C@@H](C)O)NC1=O [3BP-4790]
– | A (t1/2>15.0 minutes) | < 10 | < 10 | CC(C)C[C@@H]1NC(=O)[C@H](Cc2ccc(NC(=O)c3csc(S(N)(=O)=O)c3)cc2)NC(=O)[C@H](CC(=O)O)NC(=O)[C@H]2CCCN2C(=O)[C@H](CCC(=O)O)NC(=O)[C@@H](NC(=O)[C@H](Cc2ccc(O)cc2)NC(=O)[C@@H](NC(=O)CN2CCC(NC(=O)CN3CCN(CC(=O)O)CCN(CC(=O)O)CCN(CC(=O)O)CC3)CC2)C(C)C)CSCc2cccc(c2)CSC[C@@H](C(N)=O)NC(=O)[C@H](CO)NC(=O)[C@H](Cc2c[nH]c3ccccc23)NC(=O)[C@H]([C@@H](C)O)NC1=O [3BP-4401] ({DOTA}-[X2]VYCE[dP]D[Phe(4-NH2)](X17)LTWSC-NH2; linker 4-13 via mXylylene)
< 10 | A (t1/2>15.0 minutes) | < 10 | – | CC(C)C[C@@H]1NC(=O)[C@H](Cc2cccc(NC(=O)CCCS(N)(=O)=O)c2)NC(=O)[C@H](CC(=O)O)NC(=O)[C@H]2CCCN2C(=O)[C@H](CCC(=O)O)NC(=O)[C@@H]2CSCc3cccc(c3)CSC[C@@H](C(N)=O)NC(=O)[C@H](CNC(=O)CC[C@H](NC(=O)CN3CCN(C(=O)CN4CCN(CC(=O)O)CCN(CC(=O)O)CCN(CC(=O)O)CC4)CC3)C(=O)N2)NC(=O)[C@H](Cc2c[nH]c3ccccc23)NC(=O)[C@H]([C@@H](C)O)NC1=O [3BP-4502] ({DOTA}-[X1]ECE[dP]D[Phe(3-NHCO(CH2)3SO2NH2)]LTW[Dap]C-NH2; lactam 2-11; linker 3-12 via mXylylene)
< 10 | B (t1/2 between 5.1 and 15.0 minutes) | < 10 | – | CC(C)C[C@@H]1NC(=O)[C@H](Cc2cccc(NC(=O)c3cccc(NS(N)(=O)=O)n3)c2)NC(=O)[C@H](CC(=O)O)NC(=O)[C@H]2CCCN2C(=O)[C@H](CCC(=O)O)NC(=O)[C@@H](NC(=O)[C@H](CCC(N)=O)NC(=O)CN2CCN(C(=O)CN3CCN(CC(=O)O)CCN(CC(=O)O)CCN(CC(=O)O)CC3)CC2)CSCc2cccc(c2)CSC[C@@H](C(N)=O)NC(=O)[C@H](CO)NC(=O)[C@H](Cc2c[nH]c3ccccc23)NC(=O)[C@H]([C@@H](C)O)NC1=O [3BP-4514]
– | B (t1/2 between 5.1 and 15.0 minutes) | < 10 | 10 to 79.4 | CC(C)C[C@@H]1NC(=O)[C@H](Cc2cccc(NC(=O)Cc3cc(=O)[nH][nH]c3=O)c2)NC(=O)[C@H](CC(=O)O)NC(=O)[C@H]2CCCN2C(=O)[C@H](CCC(=O)O)NC(=O)[C@@H](NC(=O)[C@H](Cc2ccc(O)cc2)NC(=O)[C@@H](NC(=O)CN2CCC(NC(=O)CN3CCN(CC(=O)O)CCN(CC(=O)O)CCN(CC(=O)O)CC3)CC2)C(C)C)CSCc2cccc(c2)CSC[C@@H](C(N)=O)NC(=O)[C@H](CO)NC(=O)[C@H](Cc2c[nH]c3ccccc23)NC(=O)[C@H]([C@@H](C)O)NC1=O [3BP-4322] ({DOTA}-[X2]VYCE[dP]D[X38]LTWSC-NH2; linker 4-13 via mXylylene)
